Measured values published in US20240197728A1, “METHODS AND PHARMACEUTICAL COMPOSITIONS FOR TREATING REFRACTORY EPILEPSY” (INSERM (INSTITUT NATIONAL DE LA SANTÉ ET DE LA RECHERCHE …, priority 2021, published 2024).

Key:
[1] = test system: spontaneous interictal-like discharges (IIDs) in slices from mTLE patients; test: Multielectrode array recording of postoperative hippocampal-subicular slices from mTLE patients; format: cell-based, human; settings: for effect on proportion of slices displaying IIDs: p<0.05
Description: (§1) For all experiments on hippocampal cultures, neurons were pre-incubated for 2 hours with either DMSO, PCPZ or CLP257 in a CO2 incubator set at 37° C. Drugs were added directly to the culture medium. For electrophysiology experiments, neurons were also recorded in presence of these drugs in the bath. For biochemistry experiments on rat hippocampo-cortical slices, slices were incubated with either DMSO (vehicle), CLP257, PCPZ, WNK463 or sodium orthovanadate for 2 hours in interface chambers set at 37° C. For human tissue experiments, slices were pre-incubated with either DMSO, CLP257 or PCPZ for 2 hours in interface chambers set at 37° C. and then also recorded in presence of these compounds.
Patients or their legal guardians gave informed consent to participate in the study. Patients ([…], 3 males, 4 female, age range: 16-54 years) diagnosed with mesial temporal lobe epilepsy with hippocampal sclerosis underwent multimodal preoperative neurological, neurophyschological and psychiatric evaluations as well as video-electroencephalographic recording, magnetic resonance imaging and fluorodeooxyglugose positron emission tomography. Cortectomies were performed at Sainte-Anne Hospital by neurosurgeons B. Devaux and B. Turak and at Pitié-Salpêtriére Hospital by neurosurgeons S. Clemenceau and B. Mathon. Cortical specimens collected in the operating room were immediately transported in ice-cold (0-4° C.), oxygenated solution (O2/CO2 95/5%), containing (in mM): N-methyl-d-glucamine 93, KCl 2.5, NaH2PO4 1.2, NaHCO3 30, HEPES 20, D-glucose 20, ascorbic acid 5, sodium pyruvate 3, MgSO4 10 and CaCl2 0.5 (300-310 mOsm, pH7.4) and transported within 15 minutes to the laboratory. Transverse hippocampal-subicular slices (400 m thick) were prepared in the same solution using a vibratome (HM650V, Microm). They were maintained for 20-30 minutes at 37° C. and then at room temperature in an interface chamber containing artificial cerebrospinal fluid (ACSF) composed of (in mM): D-glucose 10, KCl 3.5, NaHOC3 26, NaH2PO4 1.25, NaCl 126, CaCl2 1.6 and MgCl2 1.2 (290 mOsm), equilibrated with 5% CO2 in 95% 02.
Multielectrode array recordings were performed using a MEA2100 station (Multi Channel Systems) equipped with a 120-microelectrode array chamber (custom 12×10 layout, 30 μm TiN electrodes spaced 1 mm vertical and 1.5 mm horizontal). Slices were maintained in the recording chamber using a home-made platinum-nylon harp and superfused with pre-warmed (37° C.) oxygenated ACSF at a rate of 6 ml/min. Slices were imaged using a video-microscope table (MEA-VMT1, Multi Channel Systems) in order to register the location of electrodes with respect to the slice. Extracellular signals were acquired at a sampling rate of 10 kHz using Multi Channel Experimenter (Multi Channel Systems) and analyzed offline using homemade software (Matlab, The Mathworks).

[2] = test system: OSR1; test: Immunoblot of OSR1 phosphorylation and expression in hippocampo-cortical slices; format: cell-based, rat; settings: vs DMSO
Description: as §1
8-weeks old Sprague Dawley male rats were anesthetized by intraperitoneal ketamine/xylazine injection (120/10 mg/kg) and perfused transcardially with ice-cold (0-4° C.), oxygenated solution (O2/CO2 95/5%), containing (in mM): N-methyl-d-glucamine 93, KCl 2.5, NaH2PO4 1.2, NaHCO330, HEPES 20, D-glucose 20, ascorbic acid 5, sodium pyruvate 3, MgSO4 10 and CaCl2) 0.5 (300-310 mOsm, pH7.4). Brains were removed and transverse hippocampo-cortical slices (400 m thick) were prepared in the same solution using a vibratome (HM650V, Microm). Slices were then incubated for 2-hours with DMSO, the KCC2 enhancers (CLP257, PCPZ, WNK43) or sodium orthovanadate in an interface chamber containing artificial cerebrospinal fluid (ACSF) composed of (in mM): D-glucose 10, KCl 3.5, NaHOC3 26, NaH2PO4 1.25, NaCl 126, CaCl2) 1.6 and MgCl2 1.2 (290 mOsm), equilibrated with 5% CO2 in 95% 02. After the treatments, slices were washed with cold PBS, instantaneously frozen with liquid nitrogen and stored at −80° C.
Slices were mechanically lysed on ice, using a 2 mL Dounce, in a buffer containing (in mM): Tris/HCl, pH 7.5 50, EGTA 1, EDTA 1, sodium orthovanadate 1, sodium-B-glycerophosphate 10, sodium fluoride 50, sodium pyrophosphate 5, sucrose 270, benzamidine 1, phenylmethylsulfonyl fluoride 2, Triton […], (v/v) 2-mercaptoethanol 0.1% and protease inhibitors (Roche). After complete homogenization, samples were centrifuged (16,000×g at 4° C. for 10 min) and the supernatant was collected. Protein quantification was done using Pierce BCA Protein Assay kit (Thermo Scientific) with BSA as standard.
Samples were subjected to electrophoresis on polyacrylamide gradient gels (4-12% bis-tris gels) and transferred to nitrocellulose membranes. Membranes were rinsed with TBS-tween solution (TBST; Invitrogen) and blocked with 5% (w/v) skim milk. The membranes were then immunoblotted in 5% (w/v) skim milk in TBST with a primary antibody against KCC2 (rabbit, 07-432; Millipore; 1:1000), or phosphotyrosine (mouse, clone 4G10, Millipore, 1:1000), and a mouse primary antibody against neuron-specific beta-III tubulin overnight at 4° C. (clone 2G10; T8578; Sigma-Aldrich; 1:1000). They were then washed three times with distillated water, three times with TBST-milk solution and incubated for one hour at RT with goat secondary antibodies anti-rabbit IRDye 800 (1:3000; LI-COR), goat anti-mouse IRDye 700 (1:3000; LI-COR) or donkey anti-sheep DyLight 800 (1:3000; Rockland). Membranes were then washed again with TBST three times and one time with TBS. Fluorescence was detected and the relative intensities of immunoblot bands were determined using Odyssey infrared imaging system (LI-COR Bioscience). […]

[3] = 100 μM CLP257, 2 h, slices from 5 out of 6 patients
[4] = 100 μM CLP257, 2 h, slices from the remaining patient

Row | Structure (SMILES) | mTLE patients whose slices showed suppressed IIDs ([1]; 10 μM PCPZ, 2 h) | change of IID amplitude ([1]; 10 μM PCPZ, 2 h, group I (5 mTLE patients)) | reduction of IID frequency ([1]; 10 μM PCPZ, 2 h, group I (5 mTLE patients, responders)) | change of IID amplitude ([1]; 10 μM PCPZ, 2 h, group II (2 patients)) | change of IID frequency ([1]; 10 μM PCPZ, 2 h, group II (2 patients, non-responders)) | effect on proportion of slices displaying IIDs ([1]; 10 μM PCPZ, 2 h incubation vs DMSO) | change of OSR1 phosphorylation (S325 residue) ([2]; 10 μM PCPZ, 2 h) | change of total expression of OSR1 ([2]; 10 μM PCPZ, 2 h) | patients whose slices showed reduced IID frequency ([1]; 100 μM CLP257, 2 h) | change of IID amplitude [1, 3] | reduction of IID frequency [1, 3] | change of IID amplitude [1, 4] | change of IID frequency [1, 4] | effect on proportion of slices displaying IIDs ([1]; 100 μM CLP257, 2 h incubation vs DMSO) | change of OSR1 phosphorylation (S325 residue) ([2]; 100 μM CLP257, 2 h) | change of total expression of OSR1 ([2]; 100 μM CLP257, 2 h)
1 | CN1CCN(CCCN2c3ccccc3Sc3ccc(Cl)cc32)CC1 [PCPZ, prochlorperazine] | 5 out of 7 | +9.0% | 97.55±13.8% | +18.2±4.8% | +25.5±15.9% | significantly reduced | +11.80±23.50% | +26.3±12.8% |  |  |  |  |  |  |  | 
2 | O=C1N=C(N2CCCCN2)S/C1=C\c1ccc(F)cc1O [CLP257, (5Z)-5-[(4-Fluoro-2-hydroxyphenyl)methylene]-2-(tetrahydro-1-(2H)-pyridazinyl)-4(5H)-thiazolone] |  |  |  |  |  |  |  |  | 5 out of 6 | +134.4% | 96.5±2.31% | −24.5% | +12.6% | significantly reduced | +11.50±18.50% | −2.24±8.27%
